Reference: ChEMBL document CHEMBL4270577, “Synthesis, anticancer activity and molecular modeling studies of 1,2,4-triazole derivatives as EGFR inhibitors” (Eur J Med Chem, 2018)

Experiments:
[1] = tested on: T47D; assay: Cytotoxicity against human T47D cells incubated for 48 hrs by sulforhodamine B assay; assay type: functional
[2] = tested on: SF-268; assay: Cytotoxicity against human SF268 cells incubated for 48 hrs by sulforhodamine B assay; assay type: functional; conditions: SF-268, 48 h
[3] = tested on: DU-145; assay: Cytotoxicity against human DU145 cells incubated for 48 hrs by sulforhodamine B assay; assay type: functional; conditions: DU-145, 48 h
[4] = tested on: 786-0; assay: Cytotoxicity against human 786-0 cells incubated for 48 hrs by sulforhodamine B assay; assay type: functional; conditions: 786-0, 48 h
[5] = tested on: SK-MEL-28; assay: Cytotoxicity against human SK-MEL-28 cells incubated for 48 hrs by sulforhodamine B assay; assay type: functional; conditions: SK-MEL-28, 48 h
[6] = tested on: NCI-H322M; assay: Cytotoxicity against human NCI-H322M cells incubated for 48 hrs by sulforhodamine B assay; assay type: functional
[7] = tested on: SK-MEL-5; assay: Cytotoxicity against human SK-MEL-5 cells incubated for 48 hrs by sulforhodamine B assay; assay type: functional; conditions: SK-MEL-5, 48 h
[8] = tested on: PC-3; assay: Cytotoxicity against human PC3 cells incubated for 48 hrs by sulforhodamine B assay; assay type: functional; conditions: PC-3, 48 h
[9] = tested on: LOX IMVI; assay: Cytotoxicity against human LOXIMVI cells incubated for 48 hrs by sulforhodamine B assay; assay type: functional
[10] = tested on: HCT-116; assay: Cytotoxicity against human HCT116 cells incubated for 48 hrs by sulforhodamine B assay; assay type: functional; conditions: HCT-116, 48 h
[11] = biological target: Serine/threonine-protein kinase B-raf (Mus musculus, UniProt P28028, V600E); assay: Inhibition of mouse full length GST-tagged BRAF V600E mutant using recombinant human His6-tagged MEK1 as substrate preincubated for 1 hr followed by substrate addition measured after 25 mins by ELISA
Chain of Serine/threonine-protein kinase B-raf (P28028 whole entry, looked up, stated change not applied): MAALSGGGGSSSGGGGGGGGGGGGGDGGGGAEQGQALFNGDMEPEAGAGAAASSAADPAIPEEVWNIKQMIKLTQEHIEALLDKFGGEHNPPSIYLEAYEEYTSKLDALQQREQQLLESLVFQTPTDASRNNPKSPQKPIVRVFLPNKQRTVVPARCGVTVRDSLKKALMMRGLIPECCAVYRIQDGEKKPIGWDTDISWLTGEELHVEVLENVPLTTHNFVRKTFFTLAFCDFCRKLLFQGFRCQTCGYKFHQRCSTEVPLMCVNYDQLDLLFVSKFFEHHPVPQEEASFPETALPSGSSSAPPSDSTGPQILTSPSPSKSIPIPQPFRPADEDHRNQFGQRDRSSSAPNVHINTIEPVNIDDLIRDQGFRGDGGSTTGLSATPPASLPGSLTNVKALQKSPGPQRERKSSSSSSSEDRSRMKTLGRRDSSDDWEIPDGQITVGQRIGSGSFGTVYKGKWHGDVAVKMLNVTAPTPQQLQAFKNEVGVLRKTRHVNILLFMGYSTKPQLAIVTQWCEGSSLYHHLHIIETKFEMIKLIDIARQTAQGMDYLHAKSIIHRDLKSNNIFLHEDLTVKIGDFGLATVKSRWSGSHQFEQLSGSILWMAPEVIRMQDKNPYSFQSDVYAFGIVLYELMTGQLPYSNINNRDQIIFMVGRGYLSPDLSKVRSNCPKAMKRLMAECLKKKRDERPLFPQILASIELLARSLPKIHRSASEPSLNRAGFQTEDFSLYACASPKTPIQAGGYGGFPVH

[12] = tested on: RXF 393; assay: Cytotoxicity against human RXF393 cells incubated for 48 hrs by sulforhodamine B assay; assay type: functional; conditions: RXF 393, 48 h
[13] = tested on: A549; assay: Induction of apoptosis in human A549 cells assessed as early apoptotic cells at 1.4 uM after 24 hrs by Annexin V/propidium iodide staining based flow cytometric analysis (reference value: 0.22%); assay type: functional
[14] = tested on: MDA-MB-468; assay: Cytotoxicity against human MDA-MB-468 cells incubated for 48 hrs by sulforhodamine B assay; assay type: functional; conditions: MDA-MB-468, 48 h
[15] = tested on: A549; assay: Cell cycle arrest in human A549 cells assessed as accumulation at S phase at 1.4 uM after 24 hrs by propidium iodide staining based flow cytometry (reference value: 27.9%); assay type: functional
[16] = tested on: CCRF-CEM; assay: Cytotoxicity against human CCRF-CEM cells incubated for 48 hrs by sulforhodamine B assay; assay type: functional
[17] = tested on: SNB-75; assay: Cytotoxicity against human SNB75 cells incubated for 48 hrs by sulforhodamine B assay; assay type: functional; conditions: SNB-75, 48 h
[18] = tested on: ACHN; assay: Cytotoxicity against human ACHN cells incubated for 48 hrs by sulforhodamine B assay; assay type: functional
[19] = tested on: KM12; assay: Cytotoxicity against human KM12 cells incubated for 48 hrs by sulforhodamine B assay; assay type: functional; conditions: KM12, 48 h
[20] = tested on: HOP-92; assay: Cytotoxicity against human HOP92 cells incubated for 48 hrs by sulforhodamine B assay; assay type: functional; conditions: HOP-92, 48 h
[21] = tested on: HL-60(TB); assay: Cytotoxicity against human HL-60(TB) cells incubated for 48 hrs by sulforhodamine B assay; assay type: functional; conditions: HL-60, 48 h
[22] = tested on: EKVX; assay: Cytotoxicity against human EKVX cells incubated for 48 hrs by sulforhodamine B assay; assay type: functional
[23] = tested on: SNB-19; assay: Cytotoxicity against human SNB19 cells incubated for 48 hrs by sulforhodamine B assay; assay type: functional; conditions: SNB-19, 48 h
[24] = tested on: MCF7; assay: Cytotoxicity against human MCF7 cells incubated for 48 hrs by sulforhodamine B assay; assay type: functional; conditions: MCF7, 48 h
[25] = tested on: A549; assay: Cytotoxicity against human A549/ATCC cells incubated for 48 hrs by sulforhodamine B assay; assay type: functional; conditions: A549, 48 h
[26] = tested on: OVCAR-5; assay: Growth inhibition of human OVCAR5 cells at 10 uM incubated for 48 hrs by sulforhodamine B assay relative to control; assay type: functional; conditions: OVCAR-5, 48 h, read-out: GI
[27] = tested on: OVCAR-8; assay: Cytotoxicity against human OVCAR8 cells incubated for 48 hrs by sulforhodamine B assay; assay type: functional; conditions: OVCAR-8, 48 h
[28] = tested on: IGROV-1; assay: Cytotoxicity against human IGROV1 cells incubated for 48 hrs by sulforhodamine B assay; assay type: functional; conditions: IGROV-1, 48 h
[29] = tested on: TK-10; assay: Cytotoxicity against human TK10 cells incubated for 48 hrs by sulforhodamine B assay; assay type: functional; conditions: TK-10, 48 h
[30] = tested on: A549; assay: Induction of apoptosis in human A549 cells assessed as late apoptotic cells at 1.4 uM after 24 hrs by Annexin V/propidium iodide staining based flow cytometric analysis (reference value: 0.08%); assay type: functional
[31] = tested on: OVCAR-5; assay: Cytotoxicity against human OVCAR5 cells incubated for 48 hrs by sulforhodamine B assay; assay type: functional; conditions: OVCAR-5, 48 h
[32] = tested on: RPMI-8226; assay: Cytotoxicity against human RPMI8226 cells incubated for 48 hrs by sulforhodamine B assay; assay type: functional; conditions: RPMI-8226, 48 h
[33] = tested on: SR; assay: Cytotoxicity against human SR cells incubated for 48 hrs by sulforhodamine B assay; assay type: functional
[34] = read-out: LC50 (the source's name)

Question: How did the GI50 [1] turn out when `COc1ccc(-c2nc3sc(-c4ccc(Cl)cc4)cn3n2)cc1` was run?
Answer: 3.54 µM

Question: And the TGI [1]?
Answer: > 50 µM

Question: What about the CC50 [1, 34] of the same compound?
Answer: > 50 µM

Question: What about the GI50 [2] of the same compound?
Answer: 48 µM

Question: And the TGI [2]?
Answer: > 50 µM

Question: What about the CC50 [2, 34] of the same compound?
Answer: > 50 µM

Question: And the GI50 [3]?
Answer: > 50 µM

Question: What about the TGI [3] of the same compound?
Answer: > 50 µM

Question: What about the CC50 [3, 34] of the same compound?
Answer: > 50 µM

Question: What about the GI50 [4] of the same compound?
Answer: 1.06 µM

Question: And the TGI [4]?
Answer: 2.41 µM

Question: What about the CC50 [4, 34] of the same compound?
Answer: 6.7 µM

Question: What about the GI50 [5] of the same compound?
Answer: > 50 µM

Question: And the TGI [5]?
Answer: > 50 µM

Question: And the CC50 [5, 34]?
Answer: > 50 µM

Question: And the GI50 [6]?
Answer: 1.76 µM

Question: What about the TGI [6] of the same compound?
Answer: > 50 µM

Question: What about the CC50 [6, 34] of the same compound?
Answer: > 50 µM

Question: What about the GI50 [7] of the same compound?
Answer: 14 µM

Question: What about the TGI [7] of the same compound?
Answer: > 50 µM

Question: And the CC50 [7, 34]?
Answer: > 50 µM

Question: And the GI50 [8]?
Answer: > 50 µM

Question: What about the TGI [8] of the same compound?
Answer: > 50 µM

Question: What about the CC50 [8, 34] of the same compound?
Answer: > 50 µM

Question: And the GI50 [9]?
Answer: > 50 µM

Question: What about the TGI [9] of the same compound?
Answer: > 50 µM

Question: What about the CC50 [9, 34] of the same compound?
Answer: > 50 µM

Question: And the GI50 [10]?
Answer: 1.21 µM

Question: What about the TGI [10] of the same compound?
Answer: 3.48 µM

Question: And the CC50 [10, 34]?
Answer: > 50 µM

Question: And the IC50 [11]?
Answer: 4.7 µM

Question: What about the GI50 [12] of the same compound?
Answer: 5.99 µM

Question: What about the TGI [12] of the same compound?
Answer: 39.7 µM

Question: And the CC50 [12, 34]?
Answer: > 50 µM

Question: What about the Activity [13] of the same compound?
Answer: 4.23%

Question: What about the GI50 [14] of the same compound?
Answer: 2.08 µM

Question: And the TGI [14]?
Answer: > 50 µM

Question: And the CC50 [14, 34]?
Answer: > 50 µM

Question: What about the Activity [15] of the same compound?
Answer: 17.34%

Question: What about the GI50 [16] of the same compound?
Answer: > 50 µM

Question: And the TGI [16]?
Answer: > 50 µM

Question: And the CC50 [16, 34]?
Answer: > 50 µM

Question: And the GI50 [17]?
Answer: 1.61 µM

Question: And the TGI [17]?
Answer: 6.85 µM

Question: And the CC50 [17, 34]?
Answer: 23.3 µM

Question: And the GI50 [18]?
Answer: 0.927 µM

Question: And the TGI [18]?
Answer: 2.02 µM

Question: And the CC50 [18, 34]?
Answer: 4.41 µM

Question: And the GI50 [19]?
Answer: 12.2 µM

Question: What about the TGI [19] of the same compound?
Answer: > 50 µM

Question: What about the CC50 [19, 34] of the same compound?
Answer: > 50 µM

Question: What about the GI50 [20] of the same compound?
Answer: 0.91 µM

Question: What about the TGI [20] of the same compound?
Answer: 7.61 µM

Question: And the CC50 [20, 34]?
Answer: > 50 µM

Question: And the GI50 [21]?
Answer: > 50 µM

Question: What about the TGI [21] of the same compound?
Answer: > 50 µM

Question: What about the CC50 [21, 34] of the same compound?
Answer: > 50 µM

Question: What about the GI50 [22] of the same compound?
Answer: 4.82 µM

Question: And the TGI [22]?
Answer: > 50 µM

Question: What about the CC50 [22, 34] of the same compound?
Answer: > 50 µM

Question: And the GI50 [23]?
Answer: 2.47 µM

Question: And the TGI [23]?
Answer: > 50 µM

Question: And the CC50 [23, 34]?
Answer: > 50 µM

Question: What about the GI50 [24] of the same compound?
Answer: 2.62 µM

Question: And the TGI [24]?
Answer: > 50 µM

Question: And the CC50 [24, 34]?
Answer: > 50 µM

Question: And the GI50 [25]?
Answer: 1.59 µM

Question: What about the TGI [25] of the same compound?
Answer: 5.89 µM

Question: And the CC50 [25, 34]?
Answer: 46.9 µM

Question: And the inhibition of growth at 10 µM [26]?
Answer: 48%

Question: What about the GI50 [27] of the same compound?
Answer: 2.6 µM

Question: And the TGI [27]?
Answer: > 50 µM

Question: And the CC50 [27, 34]?
Answer: > 50 µM

Question: What about the GI50 [28] of the same compound?
Answer: 1.15 µM

Question: What about the TGI [28] of the same compound?
Answer: 8.13 µM

Question: What about the CC50 [28, 34] of the same compound?
Answer: > 50 µM

Question: What about the GI50 [29] of the same compound?
Answer: 2.01 µM

Question: And the TGI [29]?
Answer: 5.62 µM

Question: And the CC50 [29, 34]?
Answer: 34.8 µM

Question: And the Activity [30]?
Answer: 4.62%

Question: What about the GI50 [31] of the same compound?
Answer: 2.78 µM

Question: What about the TGI [31] of the same compound?
Answer: > 50 µM

Question: And the CC50 [31, 34]?
Answer: > 50 µM

Question: What about the GI50 [32] of the same compound?
Answer: 3.67 µM

Question: What about the TGI [32] of the same compound?
Answer: > 50 µM

Question: And the CC50 [32, 34]?
Answer: > 50 µM

Question: And the GI50 [33]?
Answer: 4.53 µM

Question: And the TGI [33]?
Answer: 26.1 µM

Question: And the CC50 [33, 34]?
Answer: > 50 µM
